This note sets out measurements from US5049380A, “Anti-allergic extract” (Bar-Ilan University, priority 1989, dated 1991).

The test system of this assay is potato 5-lipoxygenase. Briefly: Inhibition of potato 5-lipoxygenase, arachidonic acid oxidation, polarographic. The format is biochemical. To be noted: caffeic acid 0.33 mM final concentration, AA 313 2 mg. The procedure: A reaction mixture containing 1050 units potato 5-lipoxygenase was subjected to the action of the known inhibitor caffeic acid as well as to 2 mg AA 313. Enzyme activity was tested by the ability of a sample of the reaction mixture to oxidize arachidonic acid (concentration of 0.33 mM). […] Enzyme activity was estimated polarographically.

By % Inhibition is commonly meant the percentage by which the read-out fell short of the control. As for `O=C(O)/C=C/c1ccc(O)c(O)c1` [caffeic acid], the “% Inhibition” value is 64%. Moreover, the “Enzyme activity (units)” value (control 1050 units) was found to be 375 units.
